From US7666857B2, “2-(3,4-dimethylphenyl)-4-{[2-hydroxy-3′-(1h-tetrazol-5-yl)biphenyl-3-yl]-hydrazono}-5-methyl-2,4-dihydropyrazol-3-one choline” (SmithKline Beecham Corp., priority 2004, dated 2010)

Legend:
[1] = in vivo; choline salt compared with the free acid
solubility in water = type: physicochemical

SMILES	bioavailability [1]	oral exposure [1]	solubility in water (solubility in water)
CC1=NN(c2ccc(C)c(C)c2)C(=O)/C1=N\Nc1cccc(-c2cccc(-c3nnn[nH]3)c2)c1O [Compound A, 2-(3,4-dimethylphenyl)-4-{[2-hydroxy-3′-(1H-tetrazol-5-yl)biphenyl-3-yl]-hydrazono}-5-methyl-2,4-dihydropyrazol-3-one choline]	enhanced	enhanced	
CC1=NN(c2ccc(C)c(C)c2)C(=O)C1=NNc1cccc(-c2cccc(-c3nnn[nH]3)c2)c1O [free acid, 2-(3,4-dimethylphenyl)-4-{[2-hydroxy-3′-(1H-tetrazol-5-yl)biphenyl-3-yl]-hydrazono}-5-methyl-2,4-dihydropyrazol-3-one]			poorly soluble
